Literature values, collected in patent publication US20100055214A1, “METHOD FOR INCREASING BLOOD FLOW TO MAMMALIAN SKELETAL MUSCLE BY ADMINISTERING L-ARGNINE, CRATAEGUS EXTRACT, ARTICHOKE FLAVONOIDS AND GYMNOSTEMMA PENTAPHYLLUM EXTRACT” (H3 FORMULATIONS LTD., priority 2006, published 2010).

Conditions: in vivo

Which NO production does the source give for `N=C(N)NCCC[C@H](N)C(=O)O` [L-arginine] here?
Its NO production is “increase”.

What about the aerobic exercise capacity of the same compound?
Its aerobic exercise capacity is “increase aerobic exercise capacity”.
